*1 amine or outer side, *2 acyl side, *3 side chain or, on linkers, in order; H or OH if unused. Where a SMILES comes first, the peptide text is derived from it. Bridges are numbered along the chain shown (N, C = ends). CH2COCH2 = O=C(C[*:1])C[*:2]; X1 = C(=C\C[*:2])/C[*:1]
Columns and labels:
Coagulation factor XI = Coagulation factor XI (Homo sapiens, UniProt P03951); test: Inhibition of biotinylated human FXIa assessed as inhibition of p-nitroaniline release using Pyr-Pro-Arg-pNA as substrate measured for 20 mins
Plasma [1] = test: Anticoagulant activity in CaCl2-activated human plasma assessed as fold prolongation of activated partial thromboplastin time at 30 uM relative to control; assay type: functional
Homo sapiens [2] = organism: Homo sapiens; test: Selectivity for biotinylated human FXIa over tPA (unknown origin)
Plasma [3] = test: Anticoagulant activity in CaCl2-activated human plasma assessed as prolongation of activated partial thromboplastin time; assay type: functional
Homo sapiens [4] = organism: Homo sapiens; test: Selectivity for biotinylated human FXIa over uPA (unknown origin)
[5] = Stability in human plasma assessed as half life at 40 uM measured for 48 hrs; assay type: ADME, cell-free
Homo sapiens [6] = organism: Homo sapiens; test: Selectivity for biotinylated human FXIa over plasmin (unknown origin)
Plasma [7] = test: Anticoagulant activity in rabbit plasma assessed as prolongation of activated partial thromboplastin time; assay type: functional, Oryctolagus cuniculus
Blood [8] = test: Anticoagulant activity in human whole blood assessed as activated clotting time; assay type: functional
Homo sapiens [9] = organism: Homo sapiens; test: Selectivity for biotinylated human FXIa over plasma kallikrein (unknown origin)
Homo sapiens [10] = organism: Homo sapiens; test: Selectivity for biotinylated human FXIa over trypsin (unknown origin)
Homo sapiens [11] = organism: Homo sapiens; test: Selectivity for biotinylated human FXIa over thrombin (unknown origin)
Homo sapiens [12] = organism: Homo sapiens; test: Selectivity for biotinylated human FXIa over beta-FXIIa (unknown origin)
Plasma [13] = test: Anticoagulant activity in CaCl2-activated human plasma assessed as concentration required to achieve 1.6 fold prolongation of activated partial thromboplastin time; assay type: functional
Plasma [14] = test: Anticoagulant activity in CaCl2-activated human plasma assessed as concentration required to achieve 5.1 fold prolongation of activated partial thromboplastin time; assay type: functional
Blood [15] = test: Anticoagulant activity in human blood assessed as concentration required to achieve the effects achieved with minimal therapeutic dose of UFH for prolongation of aPTT; assay type: functional

Sequence of Coagulation factor XI (P03951 19-387 limits assumed): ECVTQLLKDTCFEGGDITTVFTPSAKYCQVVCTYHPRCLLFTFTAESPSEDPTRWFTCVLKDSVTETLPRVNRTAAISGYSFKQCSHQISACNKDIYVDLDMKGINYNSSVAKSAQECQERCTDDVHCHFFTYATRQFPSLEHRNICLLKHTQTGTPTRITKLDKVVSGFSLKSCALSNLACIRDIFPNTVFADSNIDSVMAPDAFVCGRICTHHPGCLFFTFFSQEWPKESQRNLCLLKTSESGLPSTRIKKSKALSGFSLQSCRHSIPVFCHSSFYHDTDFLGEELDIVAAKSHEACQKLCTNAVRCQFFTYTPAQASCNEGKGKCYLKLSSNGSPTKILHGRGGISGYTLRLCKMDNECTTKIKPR
Sequence of Coagulation factor XI (P03951 388-625 limits assumed): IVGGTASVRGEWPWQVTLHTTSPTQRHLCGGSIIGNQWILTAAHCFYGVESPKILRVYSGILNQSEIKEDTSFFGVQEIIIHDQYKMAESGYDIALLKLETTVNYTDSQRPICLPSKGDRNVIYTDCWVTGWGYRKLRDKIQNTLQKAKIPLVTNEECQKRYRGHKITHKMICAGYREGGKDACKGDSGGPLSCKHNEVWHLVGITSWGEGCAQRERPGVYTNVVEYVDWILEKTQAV

Compound	Ki (Coagulation factor XI)	fold change (FC) (Plasma [1])	EC2 (Plasma [3])	also measured
CC(C)[C@@H]1NC(=O)[C@H](CCCNC(=N)N)NC(=O)[C@H](C)NC(=O)[C@H](CC(N)=O)NC(=O)[C@H](CO)NC(=O)[C@@H](NC(=O)[C@H](CO)NC(=O)CNC(=O)[C@H](CCC(N)=O)NC(=O)[C@H](C)NC(=O)[C@H](CCCNC(=N)N)NC(=O)[C@H](CCCNC(=N)N)NC(=O)[C@@H]2CSCc3cccc(n3)CSC[C@@H](NC(=O)[C@@H](N)CO)C(=O)N2)CSCc2cccc(n2)CSC[C@@H](C(=O)N[C@@H](Cc2cnc[nH]2)C(=O)O)NC(=O)[C@H](C(C)C)NC1=O	270 nM	1.9		
CSCC[C@H](NC(=O)[C@H](CO)NC(=O)[C@@H](NC(=O)[C@H](CCCNC(=N)N)NC(=O)[C@H](CCC(N)=O)NC(=O)[C@H](CCC(N)=O)NC(=O)[C@@H]1CSCC(=O)CSC[C@H](NC(=O)[C@@H](N)CC(C)C)C(=O)N[C@@H](CO)C(=O)N[C@@H](CO)C(=O)N2CCC[C@H]2C(=O)N[C@@H](CO)C(=O)N1)[C@@H](C)O)C(=O)N[C@H]1CSCC(=O)CSC[C@H](C(=O)N2CCC[C@H]2C(=O)O)NC(=O)[C@H](CCCNC(=N)N)NC(=O)[C@H](Cc2ccc(O)cc2)NC1=O	100 nM	1.9		
CSCC[C@@H]1NC(=O)CNC(=O)[C@H](CCCNC(=N)N)NC(=O)[C@@H](NC(=O)CN)CSCC(=O)CSC[C@@H](C(=O)N[C@H](C(=O)N[C@@H](CCCNC(=N)N)C(=O)N[C@H](C(=O)N[C@@H](CO)C(=O)N2CCC[C@H]2C(=O)N[C@@H](Cc2ccccc2)C(=O)N[C@H]2CSCC(=O)CSC[C@@H](C(=O)N3CCC[C@H]3C(=O)O)NC(=O)[C@H](CCCNC(=N)N)NC(=O)[C@H](C)NC2=O)[C@@H](C)O)C(C)C)NC(=O)[C@H](CO)NC1=O (H-GCRGMSCVRTSPFCARCP-OH; linker 2-7, 14-17 via CH2COCH2)	260 nM	2.4		
CC(C)C[C@@H]1NC(=O)CNC(=O)[C@H](CCC(N)=O)NC(=O)[C@@H](NC(=O)[C@@H](N)CCCNC(=N)N)CSCC(=O)CSC[C@@H](C(=O)N[C@@H](Cc2ccccc2)C(=O)N[C@H](C(=O)N[C@@H](CO)C(=O)N[C@@H](CC(N)=O)C(=O)N[C@@H](CCCCN)C(=O)N[C@@H](Cc2ccc(O)cc2)C(=O)N[C@H]2CSCC(=O)CSC[C@@H](C(=O)N3CCC[C@H]3C(=O)O)NC(=O)[C@H](CCCNC(=N)N)NC(=O)[C@H](C)NC2=O)[C@@H](C)O)NC(=O)[C@H](Cc2c[nH]c3ccccc23)NC1=O (H-RCQGLWCFTSNKYCARCP-OH; linker 2-7, 14-17 via CH2COCH2)	62 nM	3.2		
CC[C@H](C)[C@@H]1NC(=O)[C@@H](NC(=O)[C@H](CCCNC(=N)N)NC(=O)[C@@H](NC(=O)[C@H](CC(C)C)NC(=O)[C@@H](NC(=O)[C@@H]2CSC/C=C/CSC[C@H](NC(=O)[C@@H](N)CO)C(=O)N[C@@H](CCC(=O)O)C(=O)N[C@@H]([C@@H](C)O)C(=O)N3CCC[C@H]3C(=O)N[C@@H](CCC(N)=O)C(=O)N[C@@H](C)C(=O)N2)[C@@H](C)O)[C@@H](C)O)CSC/C=C/CSC[C@@H](C(=O)N[C@@H](CC(N)=O)C(=O)O)NC(=O)[C@H](CCC(N)=O)NC(=O)[C@H]([C@@H](C)O)NC1=O (H-SCETPQACTLTRCITQCN-OH; linker 2-8, 13-17 via X1)	72 nM	1.7		

Compounds with a lower Ki (Coagulation factor XI), results first:

Ki (Coagulation factor XI)	Compound	fold change (FC) (Plasma [1])	EC2 (Plasma [3])	also measured
0.9 nM	CC[C@H](C)[C@@H]1NC(=O)[C@H](CCCNC(=N)N)NC(=O)[C@H]([C@@H](C)O)NC(=O)[C@H](CC(C)C)NC(=O)[C@H](C)NC(=O)[C@H](CO)NC(=O)[C@@H](NC(=O)[C@H](CCCNC(=N)N)NC(=O)[C@H](CCCNC(=N)N)NC(=O)[C@@H](NC(=O)[C@H](C)NC(=O)[C@H](CCCCN)NC(=O)[C@@H]2CSCc3cccc(n3)CSC[C@@H](NC(=O)[C@@H](N)CCC(N)=O)C(=O)N2)C(C)C)CSCc2cccc(n2)CSC[C@@H](C(=O)N2CCC[C@H]2C(=O)O)NC(=O)[C@H](C(C)C)NC1=O	2.7	2.9 µM	Selectivity ratio (Homo sapiens [2]): > 1000; Selectivity ratio (Homo sapiens [4]): > 1000; half-life at 40 µM [5]: 7.6 h; Selectivity ratio (Homo sapiens [6]): > 1000; EC2 (Plasma [7]): 2 µM; EC1.5 (Blood [8]): 12 µM; Selectivity ratio (Homo sapiens [9]): > 1000; Selectivity ratio (Homo sapiens [10]): > 1000; Selectivity ratio (Homo sapiens [11]): > 1000; Selectivity ratio (Homo sapiens [12]): > 1000
7.7 nM	CC(C)C[C@H](NC(=O)[C@@H](NC(=O)[C@@H]1CSC/C=C/CSC[C@H](NC(=O)[C@@H](N)CCC(=O)O)C(=O)N[C@@H](CCCCN)C(=O)N[C@@H]([C@@H](C)O)C(=O)N2CCC[C@H]2C(=O)N[C@@H](CCCNC(=N)N)C(=O)N[C@@H](CCC(=O)O)C(=O)N1)[C@@H](C)O)C(=O)N[C@H](C(=O)N[C@@H](CCCNC(=N)N)C(=O)N[C@H]1CSC/C=C/CSC[C@@H](C(=O)N[C@@H](CCC(=O)O)C(=O)O)NC(=O)[C@H](CO)NC(=O)[C@H](Cc2cnc[nH]2)NC(=O)[C@H](C(C)C)NC1=O)[C@@H](C)O (H-ECKTPRECTLTRCVHSCE-OH; linker 2-8, 13-17 via X1)	2		
2.6 nM	CC[C@H](C)[C@@H]1NC(=O)[C@H](CCCNC(=N)N)NC(=O)[C@H]([C@@H](C)O)NC(=O)[C@H](CC(C)C)NC(=O)[C@H](C)NC(=O)[C@H](CO)NC(=O)[C@@H](NC(=O)[C@H](CCCNC(=N)N)NC(=O)[C@H](CCCNC(=N)N)NC(=O)[C@@H](NC(=O)[C@H](C)NC(=O)[C@H](CCCCN)NC(=O)[C@H](CO)NC(=O)[C@H](CO)NC(=O)[C@@H](N)CCC(N)=O)C(C)C)CSSC[C@@H](C(=O)N2CCC[C@H]2C(=O)O)NC(=O)[C@H](C(C)C)NC1=O (H-QSSKAVRRCSALTRIVCP-OH; disulfide 9-17)		4.9 µM	
2.4 nM	CC[C@H](C)[C@@H]1NC(=O)[C@H](CCCNC(=N)N)NC(=O)[C@H]([C@@H](C)O)NC(=O)[C@H](CC(C)C)NC(=O)[C@H](C)NC(=O)[C@H](CO)NC(=O)[C@@H](NC(=O)[C@H](CCCNC(=N)N)NC(=O)[C@H](CCCNC(=N)N)NC(=O)[C@@H](NC(=O)[C@H](C)NC(=O)[C@H](CCCNC(=N)N)NC(=O)[C@H](CO)NC(=O)[C@H](CO)NC(=O)[C@@H](N)CCC(N)=O)C(C)C)CSSC[C@@H](C(=O)N2CCC[C@H]2C(=O)O)NC(=O)[C@H](C(C)C)NC1=O (H-QSSRAVRRCSALTRIVCP-OH; disulfide 9-17)		3.1 µM	
2.8 nM	CC[C@H](C)[C@@H]1NC(=O)[C@H](CCCNC(=N)N)NC(=O)[C@H]([C@@H](C)O)NC(=O)[C@H](CC(C)C)NC(=O)[C@H](C)NC(=O)[C@H](CO)NC(=O)[C@@H](NC(=O)[C@H](CCCNC(=N)N)NC(=O)[C@H](CCCNC(=N)N)NC(=O)[C@@H](NC(=O)[C@H](C)NC(=O)[C@@H](N)CCCNC(=N)N)C(C)C)CSSC[C@@H](C(=O)N2CCC[C@H]2C(=O)O)NC(=O)[C@H](C(C)C)NC1=O (H-RAVRRCSALTRIVCP-OH; disulfide 6-14)		1.5 µM	Activity (Plasma [13]): 0.34 µM; Activity (Plasma [14]): 45 µM; Activity (Blood [15]): 0.77 µM
31 nM	CC(C)C[C@@H]1NC(=O)[C@H](CCC(N)=O)NC(=O)[C@@H]2CCCN2C(=O)[C@@H](NC(=O)[C@@H](N)CO)CSC/C=C/CSC[C@@H](C(=O)N[C@@H](CO)C(=O)N[C@@H](CCCNC(=N)N)C(=O)N[C@H](C(=O)N[C@@H](CCCNC(=N)N)C(=O)N[C@H]2CSC/C=C/CSC[C@@H](C(=O)N[C@@H](CO)C(=O)O)NC(=O)[C@H](CC(=O)O)NC(=O)[C@H](CC(C)C)NC(=O)[C@H](C(C)C)NC2=O)[C@@H](C)O)NC(=O)[C@H](Cc2ccc(O)cc2)NC(=O)[C@H](CCC(=O)O)NC1=O (H-SCPQLEYCSRTRCVLDCS-OH; linker 2-8, 13-17 via X1)	1.6		

Source: ChEMBL document CHEMBL5113377, “Development of Selective FXIa Inhibitors Based on Cyclic Peptides and Their Application for Safe Anticoagulation” (J Med Chem, 2021)
